Values joined by “and” are separate entries in the source; they are usually repeats but may differ in a detail not shown here. Equal values may be shown once. Toxic doses and inconclusive results are not listed.
Test system: P388 leukemia ip, CD2F1 mice, survival T/C
Assay: NCI In Vivo Anticancer Drug Screen. Data for tumor model P388 Leukemia (intraperitoneal) in CD2F1 (CDF1) mice
Conditions: endpoint: median survival time, higher = longer survival
In short: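 Mice carrying the transplanted tumor received test compound or vehicle. Survival was recorded in each group, and the value is the treated-group measurement divided by that of the vehicle-treated control group.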

[1] = dose: 100.0 mg/kg/injection, schedule: Q04DX003 (ip), vehicle: saline with Tween-80
[2] = dose: 12.5 mg/kg/injection, schedule: Q01DX009 (ip), vehicle: saline with Tween-80
[3] = dose: 25.0 mg/kg/injection, schedule: Q01DX009 (ip), vehicle: saline with Tween-80
[4] = dose: 50.0 mg/kg/injection, schedule: Q01DX009 (ip), vehicle: saline with Tween-80
[5] = dose: 50.0 mg/kg/injection, schedule: Q01DX009 (ip), vehicle: suspension in saline
[6] = dose: 200.0 mg/kg/injection, schedule: Q01DX009 (ip), vehicle: suspension in saline
[7] = dose: 6.25 mg/kg/injection, schedule: Q01DX005 (ip), vehicle: Klucel (hydroxypropylcellulose) (HPC)
[8] = dose: 12.5 mg/kg/injection, schedule: Q01DX005 (ip), vehicle: Klucel (hydroxypropylcellulose) (HPC)
[9] = dose: 100.0 mg/kg/injection, schedule: Q01DX009 (ip), vehicle: suspension in saline
[10] = dose: 50.0 mg/kg/injection, schedule: Q01DX005 (ip), vehicle: saline
[11] = dose: 100.0 mg/kg/injection, schedule: Q01DX005 (ip), vehicle: saline
[12] = dose: 50.0 mg/kg/injection, schedule: Q01DX005 (ip), vehicle: saline with Tween-80
[13] = dose: 25.0 mg/kg/injection, schedule: Q04DX003 (ip), vehicle: saline with Tween-80
[14] = dose: 200.0 mg/kg/injection, schedule: Q01DX005 (ip), vehicle: saline

C/C(=N\N=C(/[Se])N1CCCCC1C)c1ccccn1 (configuration not stated)
T/C (dose: 12.5 mg/kg/injection, schedule: Q04DX003 (ip), vehicle: Klucel (hydroxypropylcellulose) (HPC)): 101 % of control | T/C (dose: 25.0 mg/kg/injection, schedule: Q04DX003 (ip), vehicle: Klucel (hydroxypropylcellulose) (HPC)): 114 % of control

COC1(OC)C2C(Br)=C(Br)C1C1CCC/C=C\CC12 (configuration not stated)
T/C (dose: 100.0 mg/kg/injection, schedule: Q04DX002 (ip), vehicle: saline with Tween-80): 103 % of control | T/C (dose: 200.0 mg/kg/injection, schedule: Q04DX002 (ip), vehicle: saline with Tween-80): 103 % of control | T/C (dose: 400.0 mg/kg/injection, schedule: Q04DX002 (ip), vehicle: saline with Tween-80): 109 % of control

CCC(c1ccc(Cl)cc1)C(C#N)c1ccccc1 (configuration not stated)
T/C [1]: 100 % of control | T/C (dose: 200.0 mg/kg/injection, schedule: Q04DX003 (ip), vehicle: saline with Tween-80): 97 % of control | T/C (dose: 400.0 mg/kg/injection, schedule: Q04DX003 (ip), vehicle: saline with Tween-80): 100 % of control

C=C1N(c2nc(Cl)nc(Cl)n2)c2ccccc2C1(C)C
T/C [2]: 113 % of control | T/C [3]: 104 % of control | T/C [4]: 124 % of control and 86 % of control

O=[N+]([O-])c1cc(NC(=S)SCc2ccccc2)ccc1Cl
T/C (dose: 50.0 mg/kg/injection, schedule: Q01DX009 (ip), vehicle: saline): 108 % of control | T/C [5]: 92 % of control | T/C (dose: 100.0 mg/kg/injection, schedule: Q01DX009 (ip), vehicle: saline): 115 % of control | T/C (dose: 200.0 mg/kg/injection, schedule: Q01DX009 (ip), vehicle: saline): 108 % of control | T/C [6]: 92 % of control

O=[N+]([O-])c1ccccc1NN=NCCF
T/C (dose: 3.12 mg/kg/injection, schedule: Q01DX005 (ip), vehicle: Klucel (hydroxypropylcellulose) (HPC)): 100 % of control | T/C [7]: 100 % of control | T/C [8]: 109 % of control

CC(C)(C)/C(O)=C/c1nc2ccc(Cl)cc2[nH]c1=O
T/C (dose: 7.5 mg/kg/injection, schedule: Q01DX005 (ip), vehicle: Klucel + Tween-80): 97 % of control | T/C (dose: 15.0 mg/kg/injection, schedule: Q01DX005 (ip), vehicle: Klucel + Tween-80): 92 % of control | T/C (dose: 30.0 mg/kg/injection, schedule: Q01DX005 (ip), vehicle: Klucel + Tween-80): 88 % of control | T/C (dose: 240.0 mg/kg/injection, schedule: Q01DX005 (ip), vehicle: Klucel + Tween-80): 90 % of control

CCOc1nsc(OCC)n1
T/C [2]: 103 % of control | T/C [3]: 106 % of control | T/C [4]: 106 % of control | T/C (dose: 100.0 mg/kg/injection, schedule: Q01DX009 (ip), vehicle: saline with Tween-80): 114 % of control

O=C1C2CCC(C2)[CH]1[Hg][Cl] (configuration not stated)
T/C (dose: 6.25 mg/kg/injection, schedule: Q01DX009 (ip), vehicle: saline with Tween-80): 107 % of control | T/C [2]: 112 % of control | T/C [3]: 88 % of control

O=C(OCC(Cl)(Cl)Cl)N1C2C=CC(C3OC32)N1C(=O)OCC(Cl)(Cl)Cl (configuration not stated)
T/C [5]: 88 % of control | T/C [9]: 90 % of control | T/C [6]: 98 % of control

Oc1ccc(Nc2ccc(N(CCCl)CCCl)cc2)c2ccccc12
T/C (dose: 6.25 mg/kg/injection, schedule: Q01DX001 (ip), vehicle: Klucel (hydroxypropylcellulose) (HPC)): 123 % of control | T/C (dose: 50.0 mg/kg/injection, schedule: Q01DX001 (ip), vehicle: Klucel (hydroxypropylcellulose) (HPC)): 192 % of control and 195 % of control

CC(CC(=O)O)C(C(=O)O)C(=O)O (configuration not stated)
T/C [10]: 104 % of control | T/C [11]: 101 % of control

NC(=O)NNc1cccc(Cl)n1
T/C (dose: 100.0 mg/kg/injection, schedule: Q01DX001 (ip), vehicle: Klucel (hydroxypropylcellulose) (HPC)): 96 % of control | T/C (dose: 200.0 mg/kg/injection, schedule: Q01DX001 (ip), vehicle: Klucel (hydroxypropylcellulose) (HPC)): 101 % of control | T/C (dose: 400.0 mg/kg/injection, schedule: Q01DX001 (ip), vehicle: Klucel (hydroxypropylcellulose) (HPC)): 97 % of control

CN1[C@@H]2CC[C@H]1CC(O)(c1ccccc1)C2 (some centres not stated)
T/C (dose: 12.5 mg/kg/injection, schedule: Q01DX005 (ip), vehicle: saline): 94 % of control | T/C (dose: 25.0 mg/kg/injection, schedule: Q01DX005 (ip), vehicle: saline): 96 % of control | T/C [12]: 99 % of control | T/C [10]: 92 % of control

CCC(c1ccc2cc(OC)ccc2c1)C(C)(C)C(=O)F (configuration not stated)
T/C [13]: 104 % of control | T/C (dose: 33.0 mg/kg/injection, schedule: Q01DX009 (ip), vehicle: saline with Tween-80): 104 % of control | T/C [4]: 104 % of control | T/C (dose: 50.0 mg/kg/injection, schedule: Q04DX003 (ip), vehicle: saline with Tween-80): 104 % of control | T/C (dose: 75.0 mg/kg/injection, schedule: Q01DX009 (ip), vehicle: saline with Tween-80): 122 % of control | T/C [1]: 87 % of control

O=C1C(CCl)(CCl)CCC12CNC(Cl)(Cl)C2 (configuration not stated)
T/C [12]: 97 % of control | T/C (dose: 100.0 mg/kg/injection, schedule: Q01DX005 (ip), vehicle: saline with Tween-80): 97 % of control | T/C (dose: 200.0 mg/kg/injection, schedule: Q01DX005 (ip), vehicle: saline with Tween-80): 102 % of control

COc1cc(C)c2[nH]c3c(C)c(Cl)ccc3c(=O)c2c1
T/C (dose: 50.0 mg/kg/injection, schedule: Q01DX005 (ip), vehicle: Klucel + Tween-80): 97 % of control | T/C (dose: 100.0 mg/kg/injection, schedule: Q01DX005 (ip), vehicle: Klucel + Tween-80): 93 % of control | T/C (dose: 200.0 mg/kg/injection, schedule: Q01DX005 (ip), vehicle: Klucel + Tween-80): 96 % of control

CCOc1ccc2c(c1)C(C)=CC(C)(C)N2
T/C (dose: 100.0 mg/kg/injection, schedule: Q04DX003 (ip), vehicle: Klucel (hydroxypropylcellulose) (HPC)): 99 % of control | T/C (dose: 200.0 mg/kg/injection, schedule: Q04DX003 (ip), vehicle: Klucel (hydroxypropylcellulose) (HPC)): 102 % of control | T/C (dose: 400.0 mg/kg/injection, schedule: Q04DX003 (ip), vehicle: Klucel (hydroxypropylcellulose) (HPC)): 102 % of control

CC(CN1C(=O)CCC1=O)N1C(=O)CCC1=O (configuration not stated)
T/C [10]: 100 % of control | T/C [11]: 103 % of control | T/C [14]: 100 % of control

Nc1ccc2nc[nH]c(=O)c2c1
T/C (dose: 3.0 mg/kg/injection, schedule: Q01DX005 (ip), vehicle: Klucel (hydroxypropylcellulose) (HPC)): 96 % of control | T/C [7]: 95 % of control | T/C (dose: 12.0 mg/kg/injection, schedule: Q01DX005 (ip), vehicle: Klucel (hydroxypropylcellulose) (HPC)): 101 % of control | T/C [8]: 100 % of control | T/C (dose: 25.0 mg/kg/injection, schedule: Q01DX005 (ip), vehicle: Klucel (hydroxypropylcellulose) (HPC)): 111 % of control

N#C/C=C/C#N
T/C (dose: 0.15 mg/kg/injection, schedule: Q01DX009 (ip), vehicle: saline): 100 % of control | T/C (dose: 0.3 mg/kg/injection, schedule: Q01DX009 (ip), vehicle: saline): 109 % of control | T/C (dose: 0.6 mg/kg/injection, schedule: Q01DX009 (ip), vehicle: saline): 113 % of control

CC1CCC2CC(=O)NC(=O)CC12 (configuration not stated)
T/C (dose: 6.25 mg/kg/injection, schedule: Q04DX003 (ip), vehicle: saline with Tween-80): 100 % of control | T/C (dose: 12.5 mg/kg/injection, schedule: Q04DX003 (ip), vehicle: saline with Tween-80): 100 % of control | T/C [13]: 104 % of control

CCCC1C(=O)N2C(N(C)C)=Nc3ccc(C)cc3N2C1=O (configuration not stated)
T/C [5]: 101 % of control | T/C [9]: 104 % of control | T/C [6]: 106 % of control | T/C (dose: 400.0 mg/kg/injection, schedule: Q01DX009 (ip), vehicle: suspension in saline): 97 % of control

CCN1NC1C (configuration not stated)
T/C [10]: 105 % of control | T/C [11]: 97 % of control | T/C [14]: 97 % of control

O=C(CC1=NC2NN(c3ccccc3)C(=O)C2=C1CC(=O)c1cccc([N+](=O)[O-])c1)c1cccc([N+](=O)[O-])c1 (configuration not stated)
T/C (dose: 60.0 mg/kg/injection, schedule: Q01DX005 (ip), vehicle: saline with Tween-80): 95 % of control | T/C (dose: 120.0 mg/kg/injection, schedule: Q01DX005 (ip), vehicle: saline with Tween-80): 99 % of control | T/C (dose: 240.0 mg/kg/injection, schedule: Q01DX005 (ip), vehicle: saline with Tween-80): 86 % of control

CS(=O)(=O)Nc1ccc(Nc2c3ccccc3nc3cc([N+](=O)[O-])ccc23)cc1
T/C (dose: 0.09 mg/kg/injection, schedule: Q01DX009 (ip), vehicle: saline with Tween-80): 121 % of control | T/C (dose: 0.75 mg/kg/injection, schedule: Q01DX009 (ip), vehicle: saline with Tween-80): 169 % of control | T/C (dose: 1.5 mg/kg/injection, schedule: Q01DX009 (ip), vehicle: saline with Tween-80): 169 % of control | T/C (dose: 3.0 mg/kg/injection, schedule: Q01DX009 (ip), vehicle: saline with Tween-80): 177 % of control

Reference: PubChem BioAssay AID330 (DTP/NCI, 2004)
